According to ChEMBL document CHEMBL5576113, “A method for estimation of plasma protein binding using diffusion ordered NMR spectroscopy (DOSY)” (RSC Med Chem, 2024):
Each block holds one compound with its values, some of them ahead of it.

Experiments:
Albumin [1] = molecular target: T1, Albumin (Bos taurus, UniProt P02769); experiment: Plasma protein binding in bovine serum albumin assessed as fraction bound at 5:1 ratio of compound and BSA by 1H DOSY NMR spectrophotometric analysis; assay type: ADME; settings: cattle, read-out: PPB (converted)
T1 sequence (P02769 whole entry): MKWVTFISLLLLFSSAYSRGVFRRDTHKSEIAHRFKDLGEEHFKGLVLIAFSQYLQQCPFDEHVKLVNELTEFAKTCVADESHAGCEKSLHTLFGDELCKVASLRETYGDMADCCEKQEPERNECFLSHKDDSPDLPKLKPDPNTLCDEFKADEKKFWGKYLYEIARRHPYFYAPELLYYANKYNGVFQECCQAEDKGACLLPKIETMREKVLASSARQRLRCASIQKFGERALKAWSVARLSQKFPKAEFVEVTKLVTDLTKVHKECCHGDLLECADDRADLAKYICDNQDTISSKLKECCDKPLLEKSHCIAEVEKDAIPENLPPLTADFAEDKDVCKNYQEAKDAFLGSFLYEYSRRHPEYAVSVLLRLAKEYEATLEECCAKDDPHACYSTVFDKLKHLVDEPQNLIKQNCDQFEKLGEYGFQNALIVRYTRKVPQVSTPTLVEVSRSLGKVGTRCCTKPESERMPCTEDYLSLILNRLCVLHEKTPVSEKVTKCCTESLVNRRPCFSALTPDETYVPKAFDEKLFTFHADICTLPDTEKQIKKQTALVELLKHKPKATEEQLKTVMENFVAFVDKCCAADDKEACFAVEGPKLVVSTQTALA

Albumin [2] = molecular target: T1, Albumin; experiment: Plasma protein binding in bovine serum albumin assessed as fraction bound at 10:1 ratio of compound and BSA by 1H DOSY NMR spectrophotometric analysis; assay type: ADME; settings: cattle, read-out: PPB (converted)
Albumin [3] = molecular target: T1, Albumin; experiment: Plasma protein binding in bovine serum albumin assessed as fraction bound at 20:1 ratio of compound and BSA by 1H DOSY NMR spectrophotometric analysis; assay type: ADME; settings: cattle, read-out: PPB (converted)
Albumin [4] = molecular target: Albumin (Homo sapiens, UniProt P02768); experiment: Plasma protein binding in human albumin at 1 to 20 ug/ml incubated for 30 mins; assay type: ADME; settings: at 1 to 20 µg/mL, dose 1-20 µg/ml, read-out: PPB (converted)
Chain of Albumin (Homo sapiens, UniProt P02768) (P02768 whole entry): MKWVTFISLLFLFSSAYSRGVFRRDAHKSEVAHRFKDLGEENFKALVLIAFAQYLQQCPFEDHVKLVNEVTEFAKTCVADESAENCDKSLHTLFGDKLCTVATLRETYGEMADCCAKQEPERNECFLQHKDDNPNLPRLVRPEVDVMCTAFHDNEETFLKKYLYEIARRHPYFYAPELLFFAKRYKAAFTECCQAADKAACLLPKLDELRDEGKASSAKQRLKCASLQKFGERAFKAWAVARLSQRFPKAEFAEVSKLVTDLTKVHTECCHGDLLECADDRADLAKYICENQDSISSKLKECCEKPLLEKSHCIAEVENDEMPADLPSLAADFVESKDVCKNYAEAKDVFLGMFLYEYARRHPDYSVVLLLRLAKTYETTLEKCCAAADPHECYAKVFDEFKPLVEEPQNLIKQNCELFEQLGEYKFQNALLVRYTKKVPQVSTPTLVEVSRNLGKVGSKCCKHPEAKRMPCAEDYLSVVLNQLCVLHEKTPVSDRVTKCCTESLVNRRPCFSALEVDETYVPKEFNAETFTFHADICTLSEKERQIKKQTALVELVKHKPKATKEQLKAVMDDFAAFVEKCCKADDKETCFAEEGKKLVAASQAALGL

[5] = Plasma protein binding in human plasma incubated for 18 hrs by equilibrium dialysis

SMILES: CC(=O)Oc1ccccc1C(=O)O [ASPIRIN]
fraction unbound (Albumin [1]): 0.1 | fraction unbound (Albumin [2]): 0.16 | fraction unbound (Albumin [3]): 0.48

SMILES: CN/C(=N/CCSCc1nc[nH]c1C)NC#N [CIMETIDINE]
fraction unbound (Albumin [1]): 0.42 | fraction unbound (Albumin [2]): 0.66 | fraction unbound (Albumin [3]): 0.74

SMILES: N[C@H]1C(O)O[C@H](CO)[C@@H](O)[C@@H]1O (some centres not stated) [GLUCOSAMINE]
fraction unbound (Albumin [1]): 0.26 | fraction unbound (Albumin [2]): 0.46 | fraction unbound (Albumin [3]): 0.71

SMILES: CC(C)NCC(O)COc1cccc2ccccc12 (configuration not stated) [PROPRANOLOL]
fraction unbound (Albumin [1]): 0.21 | fraction unbound (Albumin [2]): 0.41 | fraction unbound (Albumin [3]): 0.49 | fraction unbound at 18 h [5]: 0.14

Results, then the compound that gave them:

fraction unbound (Albumin [1]): 0.11 | fraction unbound (Albumin [2]): 0.25 | fraction unbound (Albumin [3]): 0.36
SMILES: OC[C@H]1OC(O)[C@H](O)[C@@H]1O (some centres not stated)

fraction unbound (Albumin [1]): 0.27 | fraction unbound (Albumin [2]): 0.67 | fraction unbound (Albumin [3]): 0.71 | fraction unbound at 0.5 h (Albumin [4]): 0.625
SMILES: Cn1c(=O)c2c(ncn2C)n(C)c1=O [CAFFEINE]

fraction unbound (Albumin [2]): 0.02 | fraction unbound (Albumin [3]): 0.04
SMILES: COc1ccc2nc([S@@+]([O-])Cc3ncc(C)c(OC)c3C)[nH]c2c1 [ESOMEPRAZOLE]
